Results on five compounds are retold here after PMC7357169, “Blinded, Multicenter Evaluation of Drug-induced Changes in Contractility Using Human-induced Pluripotent Stem Cell-derived Cardiomyocytes” (Toxicological Sciences, 2020).

Where two headings read alike, the source gives them in different places. Where only a bound is given, the exact number is not on record here.

One data set has as its system hiPSC-CM EHTs. Kind of data set: EHT contractility with beat rate slowed by 300 nM ivabradine and electrical pacing 0.5-2.0 Hz. It is filed as cell-based, human. Conditions: for CA response: EHTs with 300 nM ivabradine, paced, only at 0.5 and 0.7 Hz, sometimes at 1 Hz, never at 1.5 or 2 Hz, high concentration bolus. As to the method: We extended these studies to the 3D EHT platform, this time slowing spontaneous beating to < 0.5 Hz with 300 nM ivabradine, a pharmacological blocker of the “funny” If current ([Bois et al., 1996]). […] Whereas force-frequency relationships was negative above 1.5 Hz, it was positive between 0.5 and 1.5 Hz, evidenced by a 147% increase in force generation concurrent with significant shortening of CT and RT (Supplementary Figure 6). We therefore re-evaluated 6 of the PIs in the presence of 300 nM ivabradine with electrical pacing at 0.5, 0.7, 1.0, 1.5, and 2.0 Hz. These also included epinephrine, levosimendan, and pimobendan, which had been incorrectly predicted by EHT:R-PAT and/or EHT:ERC platform-cell combinations. […] Thus, in both 2D and 3D configurations, lower beating frequencies led to increased predictivity for PIs.
Figure 5. Slowed beat rate increases the predictivity of positive inotropes (PIs) in 3D engineered heart tissues (EHTs). Contraction analysis was carried out using EHTs with 6 of the PIs from the drug test set: epinephrine (Epi), forskolin (For), levosimendan (Lev), pimobendan (Pim), dobutamine (Dob), and milrinone (Mil) which had been predicted with variable accuracy (Figure 4A, web tool). […] Scatter plots show percentage changes relative to baseline at respective frequency. Averaged peaks for force are shown for baseline (BL, black peaks) versus after treatment in EHTs paced at 0.5 Hz (blue peaks) or 2.0 Hz (red peaks). Dunnett’s stats versus baseline at respective frequency: *p < .05; **p < .01; ***p < .001; ****p < .0001.
Supplementary Figure 6. Positive force frequency relationship in EHTs paced between 0.5 and 1.5 Hz. Spontaneous beat rate of EHTs was reduced by 3 hour pre-treatment with 300 nM ivabradine, an If current inhibitor. […] CA increased from 0.5 to 1.5 Hz but plateaued and declined at higher frequencies. These changes were reflected in the CT and RT data. Dunnett's stats vs vehicle control: *, P<0.05; **, P<0.01; ***, P<0.001; ****, P<0.0001.

For data set [1] the following is noted: cited from earlier work; for FTPC: free therapeutic plasma concentration, Refs of Supplementary Table 1; for FPTC (free plasma therapeutic concentration): ref Supplementary Table 1.
The next data set concerns cardiac contractility. Particulars: cited from earlier work; for NIE: ref (Perez et al. 1995), (Boldt et al. 2010), (Bois et al. 1996), (Mesirca et al. 2014), (Choi et al. 2016); for EC50: read-out: Expected effect on contractility in isolated cardiomyocytes/heart muscles, EC50.
Data set [2] deals with R-PAT hiPSC-CMs. Kind of data set: CO:R-PAT contractility, refined conditions (RPMI-B27, slowed beat rate). Conditions: analysis of different stages of relaxation; platform taken from context (CO:R-PAT). The class given is cell-based, human. The text has this:
The hiPSC-CMs used were R-PAT (derived and differentiated in house as described previously) ([Mosqueira et al., 2018]; [Smith et al., 2018]), and iCell^2 and Pluricyte (purchased from Cellular Dynamics International and Ncardia). Manufacturer instructions were followed for the commercial hiPSC lines. For iCell^2, seeding was at 25 000 cells into each well of 96-well plates (Nunclon Delta Surface; Thermo, 167008) and then maintained for 10 days before use in drug evaluation studies. The same plates were used for R-PAT hiPSC-CMs, which were seeded at 40 000 cells/well and maintained until days 20 and 21 of differentiation before use. For Pluricyte hiPSC-CMs, seeding was at 35 000 cells into each well of 96-well plates (Greiner Bio-One; 655087) and then maintained for 8 days before use. […]
(§1) hiPSC-CMs in 96-well plate were transiently loaded in 50 µl/well of SFM containing FluoVolt (1:200 part B, 1:2000 part A; Life Tech, F10488) for 20 min at 37°C and 5% CO2. […] Electrophysiology data were analyzed using CellOPTIQ proprietary software of Clyde Biosciences and were normalized to a maximum amplitude of 1 and minimum of 0 to standardize height for comparison of traces created in OriginPro (OriginLab version 7.5). Contractility data were analyzed based on pixel displacement using an ImageJ plug-in. […]

The subject of data set [3] is hiPSC-CMs. More on the design: method as in Zhao et al., 2019. Particulars: hiPSC-CMs under loaded conditions; ref Zhao et al., 2019; cited from earlier work.
A further data set relates to heart. More on the design: method as in Refs column of Supplementary Table 1. Particulars: Refs of Supplementary Table 1; cited from earlier work.
Data set [4] deals with adult rabbit ventricular cardiomyocytes. Kind of data set: CellOPTIQ (CO) contractility, adult rabbit ventricular cardiomyocytes. Conditions: isolated rabbit myocytes; not reported in any hiPSC-CM platform. It is filed as cell-based. On the procedure: Hearts were removed and perfused retrogradely at 25 ml⋅min^−1 (37°C) with a modified KH solution containing 0.75 mmol/l [Ca^2+] for 5 min, followed by a nominally Ca^2+-free KH solution with 0.1 mmol/l EGTA for 5 min. Hearts were then perfused with KH solution containing 0.24 mmol/l [Ca^2+], 1 mg/ml collagenase (type I), and 0.06 mg/ml protease (type XIV). After approximately 4–5 min, enzyme was removed and the left ventricular free wall was then cut into strips in the recirculated enzyme solution containing 1% bovine serum albumin before being mixed to yield a single cell suspension. Cells were maintained in either Ca^2+-free KH solution or 1 mmol/l Ca^2+ (via stepwise increments) until use. Intact cardiomyocytes in 1.8 mmol/l modified Ca^2+ KH solution were loaded with FluoVolt (Thermo Fisher Scientific) at 1:3000 dilution for 10 min. The incubation medium was removed and the cells resuspended in a modified KH solution.
Cardiomyocytes were allowed to settle on a coverslip in a bath (35 mm petri-dish) at 37°C. […] A parallel set of vehicle (DMSO) time control experiments were also performed FluoVolt fluorescence (490 nm excitation) was measured at a sampling rate of 10 KHz, whereas the image was recorded on a CCD camera at 100 Hz frame rate using > 700 nm light. […]

In data set [5] the test system is R-PAT hiPSC-CMs. Kind of data set: CO:R-PAT contractility after 24 h exposure. Particulars: highest concentration.
Description: We asked whether longer term exposure would affect contractility (Supplementary Figure 7).
Prolonged exposure detects NIs in 2D and 3D cultures of hiPSC-CMs. […] CA is shown normalized to time controls.
Another data set deals with ERC18 hiPSC-CM EHTs. Particulars: EHT:ERC; 1 µM sunitinib; normalized to time controls.
The subject of data set [6] is hiPSC-CMs. The data set is described as follows: CellOPTIQ voltage (FluoVolt) analysis, hiPSC-CMs. It is filed as cell-based, human. On the procedure:
as §1, with “CO2. After incubation, the medium was replaced with 200 μl/well of SFM. Plates were then incubated at 37°C and 5% CO2 for 15 min before recording, which were made using a ×40 (NAO.6) objective at 10 KHz.” for “CO2.”
Action potential duration (APD30, APD90) and triangulation (APD90–APD30) were calculated from voltage waveforms to determine whether electrophysiology was altered, including the appearance of arrhythmias. For Ca^2+ handling, amplitude, time to peak, and decay time were assessed, whereas similar parameters (contraction amplitude [CA], contraction time [CT], and relaxation time [RT]) were derived for contraction (Supplementary Figure 2). […]

[7] abbreviates: isolated cardiomyocytes/heart muscles, Refs of Supplementary Table 1.

Protocol for ERC18 hiPSC-CM EHTs: For long-term contractility analysis of sunitinib, hiPSC-CM EHTs were equilibrated to regular cell culture medium without serum (DMEM, Biochrom F0415; penicillin/streptomycin 1% [volume/volume], Gibco 15140; aprotinin 5 µM, Sigma-Aldrich A1153; insulin 1.7 µM, Sigma-Aldrich I9278; glutamine 2000 µM, Gibco 25030-081; triiodothyronine 0.77 nM, European Commission-Joint Research Center IRMM-469; hydrocortisone 137 µM: Sigma-Aldrich H0888). Medium change, drug addition and video-optical contractility analysis was performed daily and contraction data was normalized to time control.
The EHT:ERC platform-cell combination was exposed to 100 µM doxorubicin (C) or 1 µM sunitinib (D) for up to 17.5 hr (C) or up to 8 days (D). CA is shown normalized to time controls.

`COc1cc2c(cc1OC)CC(=O)N(CCCN(C)C[C@H]1Cc3cc(OC)c(OC)cc31)CC2` [Ivabradine]: the “spontaneous beating of EHTs” value in the data set with hiPSC-CM EHTs (300 nM ivabradine) is given as less than 0.5 Hz. The FTPC in data set [1] was 0.01 to 0.1 µM. Besides, the “FPTC (free plasma therapeutic concentration)” value in data set [1] is 0.01 to 0.1 µM. Besides, the NIE in the data set with cardiac contractility (guinea pig PM, at 100 µM) is on record as -60%; in the data set with cardiac contractility (guinea pig atria, at 100 µM) it was -13%; in the data set with cardiac contractility (human trabeculae at 100 µM) it was -38%. Moreover, the “Expected effect on contractility in isolated cardiomyocytes/heart muscles” value in the data set on cardiac contractility (setting [7]) is “None, NC at >10 µM (spontaneously beating preps), NIE (-13/-60% in guinea pig atria/PM, -38% human trabeculae at 100 µM); PI in mouse left atria and 30% of human trabeculae”. Also, the “relaxation analysis at 80% relaxation” value in the data set with R-PAT hiPSC-CMs [2] was “late relaxation deficit”.
As to `Cc1[nH]c(=O)c(C#N)cc1-c1ccncc1` [Milrinone], in the data set with hiPSC-CMs [3], the “inotropy in Biowire II constructs” value is “positive inotropy”. In addition, in the data set with hiPSC-CM EHTs, the CA response result is reported as “increased contraction amplitude”. In data set [1], the FTPC was 0.1 to 0.15 µM and the “FPTC (free plasma therapeutic concentration)” value was 0.1 to 0.15 µM. In addition, the “Expected cardiac effects in vivo” value in the data set on heart is “PI, PC (more heart rate increase and RR decrease than dobutamine)”. In addition, in the data set on cardiac contractility (setting [7]), the “Expected effect on contractility in isolated cardiomyocytes/heart muscles” value was “Small PI, PC#, PCl, PL (smaller than ISO)” and the EC50 was 60 µM.
Consider `CC(CCc1ccc(O)cc1)NCCc1ccc(O)c(O)c1` (stereo not drawn) [Dobutamine], for which the CA response entry in the data set with hiPSC-CM EHTs was “increased contraction amplitude”. In data set [1], the FTPC is 0.07 to 1 µM and the “FPTC (free plasma therapeutic concentration)” value is 0.07 to 1 µM. In addition, the EC50 with cardiac contractility (setting [7]) is 1 to 3 µM. Further, the “relaxation analysis at 50% relaxation” value with R-PAT hiPSC-CMs [2] is “positive lusitropy”.
For the compound `C=C[C@@]1(C)CC(=O)[C@]2(O)[C@@]3(C)[C@@H](O)CCC(C)(C)[C@@H]3[C@H](O)[C@H](OC(C)=O)[C@@]2(C)O1` [Forskolin], the CA response entry in the data set with hiPSC-CM EHTs is “increased contraction amplitude”. Also, in data set [1], the FTPC is 0.012 to 0.024 µM and the “FPTC (free plasma therapeutic concentration)” value was 0.012 to 0.024 µM. Besides, in the data set with heart, the “Expected cardiac effects in vivo” value is reported as “PI, PC”. Moreover, in the data set on cardiac contractility (setting [7]), the EC50 was 5 to 10 µM. Also, the “spontaneous diastolic SR Ca2+ release” value in [4] is “spontaneous diastolic Ca^2+ release and associated diastolic shortening was observed”.
For `CCN(CC)CCNC(=O)c1c(C)[nH]c(/C=C2\C(=O)Nc3ccc(F)cc32)c1C` [Sunitinib], the “effect of exposure to the highest concentration for 24 h” value in the data set with R-PAT hiPSC-CMs [5] is “loss of contraction and cell death”. Besides, in [1], the FTPC is reported as 0.003 µM and the “FPTC (free plasma therapeutic concentration)” value is 0.003 µM. Moreover, the “CA over a 7-day period” value in the data set on ERC18 hiPSC-CM EHTs is given as “decline in CA”. Also, in the data set with heart, the “Expected cardiac effects in vivo” value is “NI, NC at high doses, chronic cardiotox”. Moreover, the “electrophysiology after 30 min exposure” value with hiPSC-CMs [6] was “altered electrophysiology”. In addition, the IC50 in the data set with cardiac contractility (negative inotropy, isolated cardiomyocytes/heart muscles, Refs of Supplementary Table 1, read-out: Expected effect on contractility in isolated cardiomyocytes/heart muscles, IC50) was 10 µM.
